Results: patent US12540150B1, “Fluorogenic probe using a Mislow-Evans rearrangement for real-time imaging of hydrogen peroxide” (University of Pittsburgh—Of the Commonwealth System of …, priority 2020, dated 2026)
Several values for one entry are separate records, joined by “and”; a condition that tells them apart may be missing. Equal values may be shown once.

Legend:
[1] = Selectivity of 1: reaction with O2^·−; conditions: for Fluorescence Intensity: 15 min
Description: (§1) Following the concentration dependence studies, the selectivity of 1 was assessed against O2^·−, ^1O2, ·OH, ClO^−, ONOO^−, 'BuOOH, NO3^−, NO2, and NO·. […] The production of some of these ROS required H2O2 as a reagent or generated H2O2 as a product, for which we carefully performed control experiments as detailed below. For example, a solution of 100 μM 1 in ethanol (20 μL) was added to 5:95 methanol/50 mM phosphate pH 7 buffer (140 μL). […] A control containing 100 μM 1 in ethanol (20 μL), 5:95 methanol/50 mM phosphate pH 7 buffer (160 μL), and 700 mM H2O2 (20 μL) was also generated. The solutions were allowed to incubate at 25° C. for 15 min prior to measuring fluorescence. […] Therefore, 1 is selective for H2O2 over O2^·−.

[2] = test system: HeLa cells; assay: Imaging of exogenously added H2O2 in HeLa cells; format: cell-based; conditions: 0.5 μM 1, 37° C.
Description: It was then attempted to image H2O2 within cells. HeLa cells were seeded on 35-mm glass bottom dishes (MatTek Corporation, Ashland, MA) and incubated with 0.5 μM 1 in 0.1% DMSO in DMEM (10% FBS with penicillin/streptomycin) prior to imaging. After washing with HBSS and replacing the media, H2O2 was added. The dish was inserted in a closed, thermo-controlled (37° C.) stage top incubator (Tokai Hit Co., Shizuoka-ken, Ja-pan) atop the motorized stage of an inverted Nikon TiE fluorescent microscope (Nikon Inc., Melville, NY) equipped with a 60× oil immersion optic (Nikon, CFI PlanFluor, NA 1.49) and NIS Elements Software. The sample was excited using the 470 nm line of a Lumencor diode-pumped light engine (SpectraX, Lumencor Inc., Beaverton OR). Fluorescence was detected using an ET-GFP filter set (Chroma Technology Corp) and ORCA-Flash 4.0 sCMOS camera (HAMAMATSU Corporation, Bridgewater, NJ).

[3] = Fluorescence response of 1 with increasing concentrations of H2O2; conditions: 0-159 μM H2O2 solutions, phosphate pH 7 buffer, 25° C., 20 min
Description: To verify that 1 could quantitatively measure H2O2 concentrations, 1 was incubated with increasing concentrations of H2O2. A solution of 0-159 μM H2O2 in 5:95 MeCN/50 mM phosphate pH 7 buffer (180 μL) was added to the wells of a black 96-well plate. A solution of 100 μM 1 in MeCN (20 μL) was then added to the wells. The solutions were allowed to incubate at 25° C. for 20 min before the fluorescence was measured.

[4] = Selectivity of 1 against various ROS and RNS (FIG. 14B); conditions: O2^·−, ^1O2, ·OH, ClO^−, ONOO^−, tBuOOH, NO3^−, NO2, NO·
Description: as §1

[5] = Selectivity of 1: reaction with NO3^−; conditions: for Fluorescence: 15 min minus 0 min
Description: The probe 1 was then exposed to NO3^− at various concentrations. NaNO3 (30.9 mg) was dissolved in ultrapure water (2.00 mL). This solution was diluted to 10 μM, 100 μM, 1.00 mM, and 10.0 mM. H2O2 was diluted to 10 μM, 100 μM, 1.00 mM, and 10.0 mM. A solution of 100 μM 1 in ethanol (20 μL) was added to 5:95 methanol/50 mM pH 7 potassium phosphate buffer (160 μL). The NaNO3 or H2O2 solutions (20 μL) were added to the solution containing 1 and the fluorescence intensity was measured immediately and again after incubation at 25° C. for 15 min. The fluorescence change over the first 15 min was reported for NO3^− in FIG. 21 and Table 12. The fluorescence values in Table 12 are the fluorescence at 15 min minus the fluorescence at 0 min.

[6] = Selectivity of 1: reaction with tBuOOH; conditions: for Fluorescence Intensity: pH 7, 25° C., 15 min
Description: 'BuOOH was also tested for reactivity with 1. A solution of 5:95 MeCN/50 mM phosphate pH 7 buffer (160 μL) was added to the wells of a black 96-well plate. 10 μM 1 in DMSO (20 μL) was added to each well. 0 mM H2O2 in water (20 μL) or 0, 10, or 100 μM tBuOOH in DMSO (20 μL) were then added to the wells.

[7] = Selectivity of 1: reaction with NO·; conditions: 15 min minus 0 min
[8] = Stability of 1 under ambient conditions by 1H NMR; format: physicochemical; conditions: room temperature, in air
Source text: Since organic selenides are prone to oxidation in air, the stability of 1 under ambient conditions was investigated. To study the stability of 1, the ^1H NMR spectra of 1 in DMSO-d6 were obtained at specified intervals (days 1, 7, 14, 21, 30 and 60). The solution was left at room temperature and in air throughout the entire period.
[drawing 26] were observed. […] Even so, the compound was quite resistant to oxidative decomposition up to 60 days as manifested by the presence of only less than 10% acrolein.

[9] = Selectivity of 1: reaction with NO·; conditions: for Fluorescence: 15 min minus 0 min
Description: The probe 1 was also exposed to NO· at various concentrations. A NO· solution was generated by the addition of H2SO4 to NaNO2. A round-bottom flask containing a saturated solution of NaNO2 was connected to a series of three bubblers and one Erlenmeyer flask; the first two bubblers contained 30% NaOH, and the third contained ultrapure water. The flask contained ultrapure water (10 mL). The solutions were degassed with argon for 30 min. Then a 2 M solution of H2SO4 (1 mL) was added to the saturated NaNO2 to produce a 1.8 mM solution of NO· (assuming saturation at 25° C.) in the flask. A solution of 10 μM 1 in DMSO (20 μL) was added to 5:95 acetonitrile/50 mM pH 7 potassium phosphate buffer (160 μL). The NO· solution (20 μL) was then added to the mixture containing 1. The fluorescence was measured immediately and again after 15 min at 25° C. Similar results as the results for NO2^− and NO3^− were obtained for NO· (FIG. 22 and Table 13). The data in Table 13 is the fluorescence at 15 min minus the fluorescence at 0 min.

Q: For `Oc1ccc2c(c1)Oc1cc(O/C=C/C[Se]c3ccccc3)ccc1[C@@]21OCc2ccccc21` [Compound 1, (S,E)-6′-((3-(Phenylselanyl)prop-1-en-1-yl)oxy)-3H-spiro[isobenzofuran-1,9′-xanthen]-3′-ol], which “reaction with O2^·−” value [1] is on record?
A: did not react

Q: What about the “Fluorescence Intensity” value ([1]; KO2 + 10 U/mL catalase, pH 7, 25° C.) of the same molecule?
A: 104,768 and 72,151 and 98,514

Q: And the “Fluorescence Intensity” value ([1]; KO2 + 10^4 U/mL catalase, pH 7, 25° C.)?
A: 63,553 and 41,950 and 67,009

Q: What about the “Fluorescence Intensity” value ([1]; KO2, phosphate pH 7, 25° C.) of the same molecule?
A: 106,099 and 92,938 and 99,300

Q: And the “time to significant increase in fluorescence after H2O2 addition” value [2]?
A: ≤ 30 s

Q: And the “fluorescence dependence on H2O2 concentration” value [3]?
A: increased linearly with H2O2 concentration

Q: And the “reaction with other ROS and RNS relative to H2O2” value [4]?
A: little reaction was observed

Q: What about the “reaction with NO3^−” value [5] of the same molecule?
A: did not react

Q: What about the Fluorescence ([5]; 0 μM NO3^− or H2O2, pH 7, 25° C.) of the same molecule?
A: 24,359 and 26,870 and 26,226

Q: And the Fluorescence ([5]; 0.1 μM H2O2)?
A: 58,172 and 52,104 and 52,249

Q: What about the Fluorescence ([5]; 0.1 μM NO3^−) of the same molecule?
A: 34,507 and 35,439 and 40,487

Q: What about the Fluorescence ([5]; 1 μM H2O2) of the same molecule?
A: 266,770 and 242,313 and 222,834

Q: And the Fluorescence ([5]; 1 μM NO3^−)?
A: 43,966 and 35,385 and 47,433

Q: And the “fluorescence with tBuOOH” value [6]?
A: did not produce fluorescence even at 10 μM

Q: What about the “Fluorescence Intensity” value ([6]; 10 μM ^tBuOOH) of the same molecule?
A: 31,650 and 28,922 and 33,363

Q: What about the “Fluorescence Intensity” value ([6]; H2O2) of the same molecule?
A: 277,013 and 296,506 and 250,145

Q: And the “Fluorescence Intensity” value ([6]; no ROS)?
A: 34,525 and 36,401 and 39,836

Q: And the Fluorescence ([7]; 0.1 μM H2O2)?
A: 9,370 and 9,525 and 9,517

Q: What about the Fluorescence ([7]; 1 μM H2O2) of the same molecule?
A: 26,155 and 26,618 and 27,176

Q: And the Fluorescence ([7]; 10 μM H2O2)?
A: 111,008 and 106,765 and 111,053

Q: And the half-life ([8]; DMSO-d6 solution, read-out: half-life of cis-trans isomerization of the enol ether (converted))?
A: 60 days

Q: And the “acrolein present (oxidative decomposition)” value ([8]; [D6]DMSO, up to 60 days)?
A: less than 10%

Q: And the “reaction with NO·” value [9]?
A: did not react

Q: And the Fluorescence ([9]; 0 μM NO· or H2O2, pH 7, 25° C.)?
A: 4,567 and 5,018 and 6,300

Q: And the Fluorescence ([9]; 0.1 μM NO·)?
A: 5,344 and 5,827 and 5,393

Q: And the Fluorescence ([9]; 1 μM NO·)?
A: 6,268 and 5,961 and 5,430

Q: And the Fluorescence ([9]; 10 μM NO·)?
A: 6,104 and 6,207 and 5,735
